Legend:
[1] = system: 5-HETE synthesis by rat glycogen-elicited polymorphonuclear leukocytes; test: Inhibition of 5-HETE synthesis by rat glycogen-elicited polymorphonuclear leukocytes (lipoxygenase); type: cell-based, rat (female Wistar); details: Leukocyte, rat PMN, A23187 stimulated; for inhibition at 50 µM: read-out: >50% Inhibitory at 50 μm (5-HETE synthesis)
Method: The assay of this Example measures the ability of the compounds of the invention to inhibit the synthesis of 5-HETE by rat glycogen-elicited polymorphonuclear leukocytes.
(§1) Peritoneal PMN are obtained from female Wistar rats (150-250 g) that received an i.p. injection of 6% glycogen (10 mL). After 24 hours, rats are killed by CO2 asphyxiation and peritoneal cells are harvested by peritoneal lavage using Ca^++ and Mg^++ free Hanks' balanced salt solution (HBSS). The peritoneal exudate is centrifuged at 400 g for 10 minutes. After centrifugation, the lavaged fluid is removed and the cell pellet is resuspended in HBSS containing Ca^++ and Mg^++ and 10 mM L-cysteine at a concentration of 2×10^7 cells/mL. To 1 mL portions of cell suspension, test drugs or vehicle are added and incubated at 37° C. for 10 minutes. Following this preincubation, the calcium ionophore (10 μM), A23187, is added together with 0.5 μCi [^14 C] arachidonic acid and further incubated for 10 minutes. The reaction is stopped by the addition of ice cold water (3 mL) and acidifying to pH 3.5. Lipoxygenase products are then extracted twice into diethyl ether. The pooled ether extracts are evaporated to dryness under nitrogen and the residue is redissolved in a small volume of methanol and spotted on aluminum backed pre-coated thin layer chromatographic plates. The samples are then co-chromatographed with authentic reference 5-HETE, in the solvent system--hexane:ether:acetic acid (50:50:3). After chromatography, the areas associated with 5-HETE standard are identified by autoradiography, cut out and quantitated by liquid scintillation.
The compounds of this invention are tested in this assay at a level of 50 μm, unless otherwise noted. The results are summarized in Table 1, where those compounds having an inhibition of >50% are designated by a "+". Some results are express as an IC50 value.

[2] = system: synthesis of cyclooxygenase oxidation product TxB2; test: Inhibition of synthesis of cyclooxygenase product TxB2 (rat polymorphonuclear leukocytes, procedure of Example 17); type: cell-based, rat (female Wistar); details: Leukocyte, rat PMN; for IC50: TxA2
Method: as §1
(§2) The procedure of Example 17 is also employed for the determination of the ability of the compounds of the invention to inhibit the synthesis of the arachidonic acid cyclooxygenase oxidation products TxB2 and PGE2.
In this assay, the procedure of Example 17 is carried out as described. However, in order to determine cyclooxygenase activity, the samples are cochromatographed with authentic reference TxB2 and PGE2 in the solvent system ethyl acetate:formic acid (80:1) and the upper phase of ethyl acetate:isoctane:acetic acid:water (110:50:20:100). After chromatography, the areas associated with TxB2 and PGE2 standards are identified by autoradiography, cut out and quantitated by liquid scintillation techniques.
(§3) The results are calculated as in Example 17.

[3] = system: synthesis of cyclooxygenase oxidation product PGE2; test: Inhibition of synthesis of cyclooxygenase product PGE2 (rat polymorphonuclear leukocytes, procedure of Example 17); type: cell-based, rat (female Wistar); details: Leukocyte; rat PMN
Method: as §1, §2
In this assay, the procedure of Example 17 is carried out as described. […] After chromatography, the areas associated with TxB2 and PGE2 standards are identified by autoradiography, cut out and quantitated by liquid scintillation techniques.
as §3

[4] = system: AA-induced mouse ear edema; test: Arachidonic acid (AA)-induced murine ear edema test, topical; type: in vivo, mouse (Swiss Webster female); details: for % Change from Control, TOPICAL, AA: AA 1 mg/ear (footnote a), * = <0.05
Description: (§4) The ability of the compounds of the invention to inhibit the lipoxygenase and/or cyclooxygenase pathways of arachidonic acid is examined in the in vivo arachidonic acid (AA)-/12-O-tetradecanoylphorbol acetate (TPA)-induced murine ear edema test.
(§5) According to this test, Swiss Webster female mice (Buckshire), approximately 8 weeks old, are placed into plastic boxes in groups of six. Eight groups of mice receive AA topically on the right ear, and another 8 groups receive TPA topically on the right ear. AA and TPA are dissolved in acetone at concentrations of 100 mg/mL and 100 μg/mL respectively. The phlogistics are applied to the right ear by the means of an automatic pipet. Volumes of 10 μL are applied to the inner and outer surfaces of the ear. […] The left ear (control) receives acetone delivered in the same manner. Oral and topical dosing regimens are as follows: (1) drugs are given 30 minutes prior to AA treatment, and (2) drugs are given 30 minutes after treatment with TPA.
(§6) Measurements are taken with Oditest calipers, 0-10 mm with 0.01 graduations. The right and left ears are measured after 1 hour AA-induced inflammation and 4 hours after TPA-induced inflammation.
(§7) The difference between right and left ear thickness is calculated and the significance is determined by a one way analysis of variance with Dunnett's comparisons to control (P=0.05). Drug effects are expressed as a percent change from control values: [formula]
(§8) The ED50 values are also given for these compounds where this has been determined.

[5] = system: TPA-induced mouse ear edema; test: 12-O-tetradecanoylphorbol acetate (TPA)-induced murine ear edema test, topical; type: in vivo, mouse (Swiss Webster female); details: for % Change from Control, TOPICAL, TPA: TPA 10 μg/ear (footnote b), * = <0.05
Description: as §4, §5, §6, §7, §8

[6] = system: ovalbumin induced bronchospasm; test: Inhibition of ovalbumin-induced bronchospasm mediated by endogenous mediators in sensitized guinea pigs; type: in vivo, guinea pig (male Hartley); details: 50 mg/kg intraduodenal, 10 minutes before intravenous ovalbumin challenge
Method: The assay of this Example measures the in vivo ability of the compounds of the invention to inhibit the bronchospasm induced in guinea pigs by endogenous mediators of the bronchoconstriction.
Male Hartley strain guinea pigs weighing 250-350 g are sensitized to chicken ovalbumin (OA) (10 mg i.p.) on days 1 and 3 and used starting on day 26. The animals are anesthetized with pentobarbital sodium (50 mg/kg, i.p.), bilateral vagotomy is performed, and the jugular vein is cannulated for injection of drugs and the carotid artery for monitoring blood pressure. The trachea is cannulated for artificial ventilation by a miniature Starling pump and for indirect measurement of respiratory volume changes as described, infra. Succinylcholine (2 mg/kg, i.v.) is administered to arrest spontaneous respiration. […]
Respiratory volume changes are determined by a calibrated piston whose travel is recorded, via a linear transducer, on a Beckman Dynograph recorder. Maximal bronchoconstrictor volume is determined by clamping off the trachea at the end of the experiment. Overflow volumes at minutes 1, 3 and 5 are obtained from the recorded charts.
Area under the volume overflow curve (AUC) is estimated, using the overflow values at 1, 3 and 5 minutes, and expressed as a percentage of the maximal overflow AUC (equation 1): [formula] […]

SMILES	inhibition at 50 µM [1]	IC50 [1]	inhibition at 50 µM [2]	IC50 [2]	IC50 [3]	TOPICAL ED50, AA [4]	TOPICAL ED50, TPA [5]	% Change from Control, TOPICAL, AA [4]	% Change from Control, TOPICAL, TPA [5]	% Inhibition of MAX AUC [6]
c1ccc2nc(COc3cccc4ccccc34)ccc2c1 [Example 10, 2-[(1-Naphthalenyloxy)methyl]quinoline]	> 50%	0.4 µM	> 50%	6.3 µM	> 100 µM	0.3 mg/ear	0.7 mg/ear			
Brc1c(OCc2ccc3ccccc3n2)ccc2ccccc12 [Example 11, 2-[(1-Bromo-2-naphthalenyloxy)methyl]quinoline]	> 50%		> 50%							
c1ccc2cc(OCc3ccc4ccccc4n3)ccc2c1 [Example 9, 2-[(2-Naphthalenyloxy)methyl]quinoline]	> 50%		> 50%							
Clc1ccc(OCc2ccc3ccccc3n2)cc1Cl [Example 7, 2-[(3,4-Dichlorophenoxy)methyl]quinoline]	> 50%		> 50%					-54%	-21%	
Fc1ccccc1OCc1ccc2ccccc2n1 [Example 2, 2-[(2-Fluorophenoxy)methyl]quinoline]	> 50%		> 50%					-40%	-42%	
Brc1cccc(OCc2ccc3ccccc3n2)c1 [Example 1, 2-[(3-Bromophenoxy)methyl]quinoline]	> 50%		> 50%			2.0 mg/ear	0.7 mg/ear	-43%	-62%	> 50%
FC(F)(F)c1cccc(OCc2ccc3ccccc3n2)c1 [Example 16, 2-[[3-(trifluoromethyl)phenoxy]methyl]quinoline]	> 50%							35%	22%	
Fc1cccc(OCc2ccc3ccccc3n2)c1 [Example 5, 2-[(3-Fluorophenoxy)methyl]quinoline]	> 50%	9.9 µM	> 50%	3.2 µM	> 100 µM	0.3 mg/ear	1.6 mg/ear	-63%	-47%	
Brc1ccc(SCc2nc3ccccc3s2)cc1 [Example 13]	> 50%		> 50%							
Brc1cccc(SCc2nc3ccccc3s2)c1 [Example 14]	> 50%		> 50%							
Clc1cccc(OCc2ccc3ccccc3n2)c1 [Example 3, 2-[(3-Chlorophenoxy)methyl]quinoline]	> 50%	1.5 µM	> 50%	7.2 µM	> 100 µM	0.3 mg/ear		-67%	-60%	
c1ccc2nc(COc3cccc4cccnc34)ccc2c1 [Example 15, 2-[(8-quinolinyloxy)-methyl]quinoline]	> 50%							52%	53%	
Brc1ccc(OCc2ccc3ccccc3n2)cc1 [Example 6, 2-[(4-Bromophenoxy)methyl]quinoline]	> 50%		> 50%					-36%	-22%	
Clc1ccc(OCc2ccc3ccccc3n2)cc1 [Example 4, 2-[(4-Chlorophenoxy)methyl]quinoline]	> 50%		> 50%			1.3 mg/ear		-43%	-45%	
Brc1ccccc1OCc1ccc2ccccc2n1 [Example 8, 2-[(2-Bromophenoxy)methyl]quinoline]	> 50%		> 50%					-32%	-14%	
